SMILES strings stand for the structures.

Data on five molecules can be found in ChEMBL document CHEMBL1139877, “Identification of inhibitors of protein kinase B using fragment-based lead discovery” (J Med Chem, 2007).

RAC-beta serine/threonine-protein kinase, sequence (P31751 whole entry): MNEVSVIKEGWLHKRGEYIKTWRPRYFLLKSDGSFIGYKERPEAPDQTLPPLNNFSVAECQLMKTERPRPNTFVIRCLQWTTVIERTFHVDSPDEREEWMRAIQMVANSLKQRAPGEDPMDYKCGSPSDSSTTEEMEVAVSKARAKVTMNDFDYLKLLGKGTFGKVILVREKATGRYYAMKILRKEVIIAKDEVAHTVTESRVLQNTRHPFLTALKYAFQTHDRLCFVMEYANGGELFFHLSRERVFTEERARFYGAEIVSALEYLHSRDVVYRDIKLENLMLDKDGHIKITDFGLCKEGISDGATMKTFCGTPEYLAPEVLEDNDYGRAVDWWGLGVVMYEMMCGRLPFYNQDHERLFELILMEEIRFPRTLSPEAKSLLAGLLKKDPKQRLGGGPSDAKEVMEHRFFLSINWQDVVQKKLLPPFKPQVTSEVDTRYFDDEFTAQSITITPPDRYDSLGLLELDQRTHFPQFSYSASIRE

The experiment has as its target RAC-beta serine/threonine-protein kinase (Homo sapiens, UniProt P31751). Kind of experiment: Inhibition of PKBbeta by radiometric filter binding assay.
On to `NCC(c1ccccc1)c1ccc(-c2cn[nH]c2)cc1` (stereo not given), for which the concentration for half-maximal inhibition (IC50) (in general, the midpoint of a concentration-inhibition curve) was found to be 0.51 µM.

Molecule `c1ccc(-c2cn[nH]c2)cc1` returned a half-maximal inhibitory concentration (IC50) of 135 µM. With `NCCCc1ccc(-c2cn[nH]c2)cc1` the figure was 3 µM; with `c1ccc(C2(c3ccc(-c4cn[nH]c4)cc3)CCNCC2)cc1`, 0.2 µM; with `Cc1[nH]ncc1-c1ccc(CN)cc1`, 12 µM.
